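Tested at 5 concentrations; 48 h exposure; 96-well plates; endpoints linearly interpolated, else capped at highest concentration. GI50 is the concentration that inhibits growth by half. At the TGI there is no net growth.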
Tests used:
Assay in all cases: growth of human tumour cells (NCI), 48 h
[1] = tested on: SNB-19 CNS
[2] = tested on: A549 NSCLC
[3] = tested on: HCT-116 colon
[4] = tested on: EKVX NSCLC
[5] = tested on: SN12C renal
[6] = tested on: NCI-H226 lung
[7] = tested on: K-562 leukemia
[8] = tested on: OVCAR-5 ovarian
[9] = tested on: DU-145 prostate
[10] = tested on: A498 renal

CCOC(=O)c1sc2c(c1OC(=O)c1ccccc1)c(=O)n(-c1ccccc1)c(=S)n2-c1ccccc1
TGI [1]: > 100 µM
TGI [2]: 64.2 µM
TGI [3]: 74.8 µM
TGI [4]: > 100 µM
TGI [5]: > 100 µM
TGI [6]: > 100 µM
TGI [7]: > 100 µM
TGI [8]: > 100 µM
TGI [9]: > 100 µM
TGI [10]: 31 µM

O=C(O)c1ccccc1/C=N\NC1=NCCCCN1
TGI [1]: > 100 µM
TGI [2]: > 100 µM
TGI [3]: > 100 µM
TGI [4]: > 100 µM
TGI [5]: > 100 µM
TGI [6]: > 100 µM
TGI [7]: > 100 µM
TGI [8]: > 100 µM
TGI [9]: > 100 µM
TGI [10]: > 100 µM

COC(=O)C1(C(=O)OC)N=C(C)OC1C(C)C (stereo not given)
TGI [1]: > 100 µM
TGI [2]: > 100 µM
TGI [3]: > 100 µM
TGI [4]: > 100 µM
TGI [5]: > 100 µM
TGI [6]: > 100 µM
TGI [7]: > 100 µM
TGI [8]: > 100 µM
TGI [9]: > 100 µM
TGI [10]: > 100 µM

Cc1[nH]c(-c2ccccc2)c(-c2ccc(Cl)cc2)c1C(=O)ONC(=O)c1ccccc1
TGI [1]: 19.3 µM
TGI [2]: 10.4 µM
TGI [3]: 5.24 µM
TGI [4]: 9.77 µM
TGI [5]: 5.21 µM
TGI [6]: 11.6 µM
TGI [7]: 16.7 µM
TGI [8]: 20 µM
TGI [9]: 3.76 µM
TGI [10]: 18.4 µM

CCCCN(c1ccccc1)c1ncnc2c1cnn2C
TGI [1]: > 100 µM
TGI [2]: > 100 µM
TGI [3]: > 100 µM
TGI [4]: > 100 µM
TGI [5]: > 100 µM
TGI [6]: > 100 µM
TGI [7]: > 100 µM
TGI [8]: > 100 µM
TGI [9]: > 100 µM
TGI [10]: 71.1 µM

CCOC(=O)c1cn(-c2ccc(Cl)cc2)c(=O)n2c1nc1ccccc12
TGI [1]: > 100 µM
TGI [2]: > 100 µM
TGI [3]: > 100 µM
TGI [4]: > 100 µM
TGI [5]: > 100 µM
TGI [6]: > 100 µM
TGI [7]: > 100 µM
TGI [8]: > 100 µM
TGI [9]: > 100 µM
TGI [10]: > 100 µM

Cc1ccc(S(=O)(=O)N2CCN(CCN(C)CCN3CCN(S(=O)(=O)c4ccc(C)cc4)CC3)CC2)cc1
TGI [1]: 69.4 µM
TGI [2]: 76.1 µM
TGI [3]: 35 µM
TGI [4]: 55.2 µM
TGI [5]: 37.6 µM
TGI [6]: 79.7 µM
TGI [7]: 35.2 µM
TGI [8]: 80.8 µM
TGI [9]: 68.5 µM
TGI [10]: 31.8 µM

COc1ccc2c(c1)CCc1c-2n(CCN(C)C)c2ccc(OC)cc12
TGI [1]: 36.5 µM
TGI [2]: > 100 µM
TGI [3]: > 100 µM
TGI [4]: > 100 µM
TGI [5]: > 100 µM
TGI [6]: 10.6 µM
TGI [7]: > 100 µM
TGI [8]: 51.6 µM
TGI [9]: > 100 µM
TGI [10]: 41.1 µM

COc1ccc(CNc2nc(NCc3ccc(OC)cc3)nc(N3CCOCC3)n2)cc1
TGI [1]: > 100 µM
TGI [2]: > 100 µM
TGI [3]: > 100 µM
TGI [4]: > 100 µM
TGI [5]: > 100 µM
TGI [6]: > 100 µM
TGI [7]: 26.2 µM
TGI [8]: 41.6 µM
TGI [9]: > 100 µM
TGI [10]: 93.8 µM

COc1cc2ccnc3c2c(c1O)N(C)C=C3
TGI [1]: > 62.9 µM
TGI [2]: 50.3 µM
TGI [3]: 16.4 µM
TGI [4]: 33.4 µM
TGI [5]: > 61.2 µM
TGI [6]: 37.4 µM
TGI [7]: > 100 µM
TGI [8]: 33.9 µM
TGI [9]: > 62 µM
TGI [10]: 23.4 µM

N#Cc1c2c(c(N3CCOCC3)n3c1nc1ccccc13)CCCC2
TGI [1]: 32 µM
TGI [2]: 61.7 µM
TGI [3]: 31.7 µM
TGI [4]: 35.9 µM
TGI [5]: 45.8 µM
TGI [6]: 32.5 µM
TGI [7]: > 100 µM
TGI [8]: 41.8 µM
TGI [9]: 37.2 µM
TGI [10]: 34.5 µM

O=C1C=CC(=O)c2ncccc21
TGI [1]: 19.1 µM
TGI [2]: 28.8 µM
TGI [3]: 4.27 µM
TGI [4]: 9.86 µM
TGI [5]: 16 µM
TGI [6]: 32.4 µM
TGI [7]: > 24.7 µM
TGI [8]: 32.2 µM
TGI [9]: 20.4 µM
TGI [10]: 27.4 µM

O=C(/C=C/c1ccc([N+](=O)[O-])cc1)c1nc2ccccc2[nH]1
TGI [1]: > 100 µM
TGI [2]: > 100 µM
TGI [3]: > 38.7 µM
TGI [4]: > 100 µM
TGI [5]: > 100 µM
TGI [6]: 4.39 µM
TGI [7]: > 61.5 µM
TGI [8]: 24.1 µM
TGI [9]: > 100 µM
TGI [10]: 3.99 µM

CCCCCCCCCCCCCCCCCCOCC(O)COP(=O)(O)OCC1OC(n2cc(F)c(=O)[nH]c2=O)CC1O (stereo not given)
TGI [1]: 25.3 µM
TGI [2]: 25.9 µM
TGI [3]: 19.6 µM
TGI [4]: > 74.2 µM
TGI [5]: 27.9 µM
TGI [6]: > 53.8 µM
TGI [7]: 32.1 µM
TGI [8]: 26.3 µM
TGI [9]: 23.5 µM
TGI [10]: > 56 µM

COc1cccc(-c2nc3sccn3c2-c2ccnc(NCCNC(=O)Nc3cccc(C(F)(F)F)c3)n2)c1
GI50 [1]: 7.77 µM
TGI [1]: > 100 µM
GI50 [2]: 3.82 µM
TGI [2]: 17.1 µM
GI50 [3]: 3.45 µM
TGI [3]: 11.6 µM
GI50 [4]: 3.55 µM
TGI [4]: 59.6 µM
GI50 [5]: 4.03 µM
TGI [5]: 26.5 µM
GI50 [6]: 4.58 µM
TGI [6]: 68.6 µM
GI50 [7]: 3.48 µM
TGI [7]: > 100 µM
GI50 [8]: 6.37 µM
TGI [8]: 52.2 µM
GI50 [9]: 5.13 µM
TGI [9]: 95.5 µM
GI50 [10]: 2.44 µM
TGI [10]: 17.5 µM

OC1OC(c2ccco2)C(F)(F)C(F)(F)C1(F)F (stereo not given)
TGI [1]: > 100 µM
TGI [2]: > 100 µM
TGI [3]: > 100 µM
TGI [4]: > 100 µM
TGI [5]: > 100 µM
TGI [6]: > 100 µM
TGI [7]: > 100 µM
TGI [8]: > 100 µM
TGI [9]: > 100 µM
TGI [10]: > 100 µM

O=C1OS2(OCc3cccc4cccc2c34)c2ccccc21 (stereo not given)
TGI [1]: > 100 µM
TGI [2]: > 100 µM
TGI [3]: > 100 µM
TGI [4]: > 100 µM
TGI [5]: > 100 µM
TGI [6]: > 100 µM
TGI [7]: > 100 µM
TGI [8]: > 100 µM
TGI [9]: > 100 µM
TGI [10]: > 100 µM

O=C(NCCO)c1ccc(Cl)cc1
TGI [1]: > 100 µM
TGI [2]: > 100 µM
TGI [3]: > 100 µM
TGI [4]: > 100 µM
TGI [5]: > 100 µM
TGI [6]: > 100 µM
TGI [7]: > 100 µM
TGI [8]: > 100 µM
TGI [9]: > 100 µM
TGI [10]: > 100 µM

CCOC(=O)C1=C(C)NC(=S)NC1c1cccc(O)c1 (stereo not given)
TGI [1]: > 100 µM
TGI [2]: > 100 µM
TGI [3]: > 100 µM
TGI [4]: > 100 µM
TGI [5]: > 95.3 µM
TGI [6]: > 100 µM
TGI [7]: > 100 µM
TGI [8]: > 100 µM
TGI [9]: > 100 µM
TGI [10]: 87.6 µM

Cc1cc(S(=O)(=O)Nc2nnc3cc(C(F)(F)F)cc(C)n23)c(S)cc1Cl
TGI [1]: > 86.4 µM
TGI [2]: 52.8 µM
TGI [3]: > 100 µM
TGI [4]: > 100 µM
TGI [5]: > 100 µM
TGI [6]: > 96.5 µM
TGI [7]: > 100 µM
TGI [8]: > 100 µM
TGI [9]: > 100 µM
TGI [10]: 37.2 µM
